Data from the NIST ThermoML archive (doi:10.1021/je0501843).
± gives the expanded uncertainty stated by the source.

Test: molar heat capacity at constant volume; wn = mass fraction of the nth substance listed
Details: Fluid (supercritical or subcritical phases), Vacuum adiabatic calorimetry, w1 = 0.5001

FC(F)C(F)(F)F [pentafluoroethane] + FCF
Details | molar heat capacity at constant volume [J/K/mol]
380 K, 9183 kPa | 75.69 ± 1.5
380 K, 9715 kPa | 75.6 ± 1.5
380 K, 10331 kPa | 73.35 ± 1.5
380 K, 13988 kPa | 71.55 ± 1.4
381 K, 8790 kPa | 77.44 ± 1.6
381 K, 9306 kPa | 77.28 ± 1.6
381 K, 9856 kPa | 75.26 ± 1.5
381 K, 10492 kPa | 73.9 ± 1.5
381 K, 14227 kPa | 72.04 ± 1.5
382 K, 8897 kPa | 78.41 ± 1.6
382 K, 9432 kPa | 76.92 ± 1.6
382 K, 9996 kPa | 76.48 ± 1.5
382 K, 10651 kPa | 74.52 ± 1.5
382 K, 14466 kPa | 72.98 ± 1.5
383 K, 9005 kPa | 77.33 ± 1.6
383 K, 9553 kPa | 75.97 ± 1.5
383 K, 10136 kPa | 75.35 ± 1.5
383 K, 10808 kPa | 74.44 ± 1.5
383 K, 14706 kPa | 72.4 ± 1.5
384 K, 9112 kPa | 76.6 ± 1.5
384 K, 9679 kPa | 76.51 ± 1.5
384 K, 10277 kPa | 75.34 ± 1.5
384 K, 10967 kPa | 74.6 ± 1.5
384 K, 14944 kPa | 71.93 ± 1.5
385 K, 9219 kPa | 77.25 ± 1.6
385 K, 9804 kPa | 75.82 ± 1.5
385 K, 10418 kPa | 76.16 ± 1.5
385 K, 11125 kPa | 74.07 ± 1.5
385 K, 15188 kPa | 72.26 ± 1.5
386 K, 9326 kPa | 78.28 ± 1.6
386 K, 9929 kPa | 76.35 ± 1.5
386 K, 10558 kPa | 76.6 ± 1.5
386 K, 11283 kPa | 75.16 ± 1.5
386 K, 15426 kPa | 73.47 ± 1.5
387 K, 9434 kPa | 77.16 ± 1.6
387 K, 10051 kPa | 76.61 ± 1.5
387 K, 10699 kPa | 76.14 ± 1.5
387 K, 11442 kPa | 74.89 ± 1.5
387 K, 15666 kPa | 72.66 ± 1.5
388 K, 9540 kPa | 76.32 ± 1.5
388 K, 10174 kPa | 74.86 ± 1.5
388 K, 10840 kPa | 75.57 ± 1.5
388 K, 11602 kPa | 73.37 ± 1.5
388 K, 15904 kPa | 71.19 ± 1.4
389 K, 9649 kPa | 77.31 ± 1.6
389 K, 10296 kPa | 75.87 ± 1.5
389 K, 10980 kPa | 76.71 ± 1.5
389 K, 11761 kPa | 73.84 ± 1.5
389 K, 16147 kPa | 71.61 ± 1.4
390 K, 9756 kPa | 77.57 ± 1.6
390 K, 10421 kPa | 77.3 ± 1.6
390 K, 11124 kPa | 76.88 ± 1.6
390 K, 11922 kPa | 75.02 ± 1.5
390 K, 16388 kPa | 72.19 ± 1.5
391 K, 9862 kPa | 77.21 ± 1.6
391 K, 10547 kPa | 76.53 ± 1.5
391 K, 11263 kPa | 76.5 ± 1.5
391 K, 12081 kPa | 74.96 ± 1.5
391 K, 16627 kPa | 71.79 ± 1.5
392 K, 9969 kPa | 77.4 ± 1.6
392 K, 10670 kPa | 75.59 ± 1.5
392 K, 11403 kPa | 75.77 ± 1.5
392 K, 12239 kPa | 73.58 ± 1.5
392 K, 16868 kPa | 71.21 ± 1.4
393 K, 10077 kPa | 78.13 ± 1.6
393 K, 10795 kPa | 76.57 ± 1.5
393 K, 11546 kPa | 75.66 ± 1.5
393 K, 12400 kPa | 74.26 ± 1.5
393 K, 17110 kPa | 71.47 ± 1.4
394 K, 10185 kPa | 78.09 ± 1.6
394 K, 10920 kPa | 77.19 ± 1.6
394 K, 11688 kPa | 76.6 ± 1.5
394 K, 12560 kPa | 75.24 ± 1.5
394 K, 17351 kPa | 71.82 ± 1.5
395 K, 10292 kPa | 77.54 ± 1.6
395 K, 11045 kPa | 76.74 ± 1.5
395 K, 11829 kPa | 75.92 ± 1.5
395 K, 12720 kPa | 73.89 ± 1.5
395 K, 17590 kPa | 71.67 ± 1.4
396 K, 10400 kPa | 77.68 ± 1.6
396 K, 11168 kPa | 76.85 ± 1.5
396 K, 11972 kPa | 76.16 ± 1.5
396 K, 12880 kPa | 73.78 ± 1.5
396 K, 17831 kPa | 71.16 ± 1.4
397 K, 10508 kPa | 78.41 ± 1.6
397 K, 11292 kPa | 76.06 ± 1.5
397 K, 12113 kPa | 76.4 ± 1.5
397 K, 13040 kPa | 74.36 ± 1.5
397 K, 18073 kPa | 71.18 ± 1.4
398 K, 10616 kPa | 78.25 ± 1.6
398 K, 11415 kPa | 76.66 ± 1.5
398 K, 12256 kPa | 75.92 ± 1.5
398 K, 13199 kPa | 74.81 ± 1.5
398 K, 18315 kPa | 72.43 ± 1.5
399 K, 10723 kPa | 77.16 ± 1.6
399 K, 11538 kPa | 76.8 ± 1.5
399 K, 12395 kPa | 76.53 ± 1.5
399 K, 13361 kPa | 74.08 ± 1.5
399 K, 18556 kPa | 72.11 ± 1.5
